# Test results: ChEMBL document CHEMBL5528041, “Ferroptosis-Based Therapeutic Strategies toward Precision Medicine for Cancer” (J Med Chem, 2024)
# Assays:
# HCT-116 [1] = assay: Antiproliferative activity against human HCT-116 cells assessed as reduction in cell viability incubated for 48 hrs by WST-1 assay; type: functional, cell-based; conditions: HCT-116, 48 h
# HT-29 [2] = assay: Antiproliferative activity against human HT-29 cells assessed as reduction in cell viability measured after 48 hrs by WST-1 assay; type: functional, cell-based; conditions: HT-29, 48 h
# ASPC1 = assay: Cytotoxicity against human ASPC1 cells assessed as inhibition of cell growth by SRB assay; type: functional, cell-based
# Panc1005 = assay: Antiproliferative activity against human Panc1005 cells assessed as reduction in cell growth incubated for 72 hrs by Cell titer-Glo luminescent cell viability assay; type: functional, cell-based; conditions: Panc1005, 72 h
# BXPC-3 = assay: Antiproliferative activity against human BXPC-3 cells assessed as inhibition of cell proliferation treated for 72 hrs by resazurin dye-based fluorescence assay; type: functional; conditions: BXPC-3, 72 h
# PANC-1 = assay: Antiproliferative activity against human PANC-1 cells assessed as reduction in cell viability incubated for 48 hrs by resazurin dye based cell titer-blue viability assay; type: functional; conditions: PANC-1, 48 h
# HT-29 [3] = assay: Antiproliferative activity against human HT-29 cells assessed as inhibition of cell growth measured after 48 hrs by SRB assay; type: functional, cell-based; conditions: HT-29, 48 h
# [4] = Antiproliferative activity against human CRC cells assessed as reduction in cell viability incubated for 48 hrs by MTT assay; type: functional, cell-based
# HCT-116 [5] = assay: Antiproliferative activity against human HCT-116 cells assessed as reduction in cell growth incubated for 48 hrs by MTT assay; type: functional, cell-based; conditions: HCT-116, 48 h
# ID8 = assay: Cytotoxicity against mouse ID8 cells assessed as inhibition of cell viability measured after 24 hrs by MTT assay; type: functional, cell-based; conditions: ID8, 24 h
# B16 = assay: Cytotoxicity against mouse B16 cells assessed as inhibition of cell viability measured after 24 hrs by MTT assay; type: functional, cell-based; conditions: B16, 24 h
# [6] = Cytotoxicity against mouse Hepa-1 cells assessed as reduction in cell viability incubated for 24 hrs by MTS assay; type: functional, cell-based; conditions: Hepa-1, 24 h
# Hepa 1-6 = assay: Cytotoxicity against mouse Hepa1-6 cells assessed as inhibition of cell growth incubated for 24 hrs by MTT assay; type: functional, cell-based; conditions: Hepa1-6, 24 h
# MC-38 = assay: Cytotoxicity against mouse MC-38 cells assessed as reduction in cell viability incubated for 24 hrs by MTS assay; type: functional, cell-based; conditions: MC-38, 24 h
# MDA-MB-231 = assay: Antiproliferative activity against human MDA-MB-231 cells assessed as inhibition of cell viability measured after 72 hrs by MTT assay; type: functional, cell-based; conditions: MDA-MB-231, 72 h
# [7] = Antiproliferative activity against human HCCM-5 cells assessed as reduction in cell viability measured after 72 hrs by MTT assay; type: functional, cell-based; conditions: HCCM-5, 72 h
# Huh-7 = assay: Cytotoxicity against human Huh-7 cells assessed as reduction in cell viability incubated for 72 hrs by MTT assay; type: functional, cell-based; conditions: Huh-7, 72 h
smiles,measurement,setting,value
C=C1CC[C@@H]2[C@](C)(CO)[C@H](O)CC[C@@]2(C)[C@@H]1C/C=C1/C(=O)OC[C@H]1O [ANDROGRAPHOLIDE],IC50,HCT-116 [1],19 µg/mL
same,IC50,HT-29 [2],10 µg/mL
Oc1c([C@@H](Nc2ccccn2)c2cccc(Cl)c2Cl)ccc2cccnc12,IC50,ASPC1,0.59 µM
same,IC50,Panc1005,0.59 µM
same,IC50,BXPC-3,0.59 µM
same,IC50,PANC-1,0.59 µM
CC(C)=CC/C=C(\C)[C@H]1CC[C@]2(C)[C@@H]1[C@H](O)C[C@@H]1[C@@]3(C)CC[C@H](O)C(C)(C)[C@@H]3[C@@H](O[C@@H]3O[C@H](CO)[C@@H](O)[C@H](O)[C@H]3O)C[C@]12C [GINSENOSIDE RH4],IC50,HT-29 [3],197 µM
same,IC50,[4],197 µM
same,IC50,HCT-116 [5],178 µM
CCOc1ccccc1-n1c(C(C)N2CCN(C(=O)COc3ccc(Cl)cc3)CC2)nc2ccccc2c1=O (configuration not stated) [ERASTIN],IC50,ID8,1.2 µM
same,IC50,B16,5 µM
same,IC50,[6],0.5 µM
same,IC50,Hepa 1-6,0.5 µM
same,IC50,MC-38,0.5 µM
N#Cc1ccc(C(=O)/C=C/c2ccccc2Oc2ccccc2C=O)cc1,IC50,MDA-MB-231,10.6 µM
C/C=C/C#CC#C/C=C/c1ccco1,IC50,[7],59.7 µM
same,IC50,Huh-7,22.4 µM
